The numbers were not newly measured in patent publication US20210401895A1, “TREATMENT OF A DISEASE OF THE GASTROINTESTINAL TRACT WITH LIVE BIOTHERAPEUTICS” (Progenity, Inc., priority 2017, published 2021), which cites them from elsewhere.

Molecules are shown by their SMILES.

Series [1] concerns Propionibacterium acnes and Staphylococcus epidermidis. The following applies: particularly Propionibacterium acnes and Staphylococcus epidermidis.
The subject of series [2] is malignant or hyperactive melanocytes.
In series [3] the test system is dermatophytes, yeasts, moulds and other fungi. The following applies: broad spectrum of dermatophytes.

For `O=C(O)CCCCCCCC(=O)O` [Azelaic acid], in series [1], the “effects on aerobic and anaerobic organisms” value is reported as “antibacterial effects”. For the same molecule, the “effect on malignant or hyperactive melanocytes” value in series [2] was “cytotoxic effect”.

Take `Cc1cc(C2CCCCC2)n(O)c(=O)c1` [Ciclopirox]: in series [3], the activity against fungi entry is “fungicidal, fungistatic and sporicidal activity”.
